Several values for one entry are separate records, joined by “and”; a condition that tells them apart may be missing. Identical values can stand only once. Entries after “also recorded” stand apart in the source; their conditions may differ.
Columns and labels:
[1] = system: mild to moderate plaque psoriasis; experiment: Study of topical ruxolitinib (INCB018424) cream in plaque psoriasis, PASI response at day 28 (Example 1); assay type: in vivo, human; settings: for Classification: therapeutic response at day 28, individual subjects; for % Change in PASI at Day 28: individual subjects
[2] = system: mild to moderate plaque psoriasis; experiment: Double-blind, randomized, vehicle controlled dose ranging study of topical ruxolitinib (INCB018424) in plaque psoriasis, PASI response at day 28 and day 84 (Example 4); assay type: in vivo, human; settings: for Classification: therapeutic response at day 84, individual subjects; for % Change in PASI at Day 28 / % Change in PASI at Day 84: individual subjects

SMILES: N#CC[C@H](C1CCCC1)n1cc(-c2ncnc3[nH]ccc23)cn1 [INCB018424, (3R)-3-cyclopentyl-3-[4-(7H-pyrrolo[2,3-d]pyrimidin-4-yl)-1H-pyrazol-1-yl]propanenitrile]
- Classification ([1]; 1.0% BID): Responder
- Classification ([1]; 1.5% BID): Responder; also recorded: Non-Responder
- Classification ([1]; 1.5% QD): Non-Responder; also recorded: Responder
- % Change in PASI at Day 28 ([1]; topical cream 1.0% BID): −60.0% and −66.7% (2×)
- % Change in PASI at Day 28 ([1]; topical cream 1.5% BID): −85.7% and −40.0% (2×) and −33.3% and −50.0% and −60.0%
- % Change in PASI at Day 28 ([1]; topical cream 1.5% QD): −33.3% and −80.0% and −50.0%
- Classification ([2]; 0.5% QD): Responder (individuals were classified as responders if they had >=50% improvement in psoriasis area severity index on day 84); also recorded: Non-Responder
- Classification ([2]; 1.0% QD): Non-Responder; also recorded: Responder (individuals were classified as responders if they had >=50% improvement in psoriasis area severity index on day 84)
- Classification ([2]; 1.5% QD): Non-Responder; also recorded: Responder (individuals were classified as responders if they had >=50% improvement in psoriasis area severity index on day 84)
- % Change in PASI at Day 28 ([2]; topical cream 0.5% QD): −16.7% (2×) and −23.5% and −51.7% and −12.5% and −27.8%
- % Change in PASI at Day 84 ([2]; topical cream 0.5% QD): −75% and −50% and −23.5% and −66.7% and −12.5% and −45.9%
- % Change in PASI at Day 28 ([2]; topical cream 1.0% QD): −15.3% and 0% and 83.3%
- % Change in PASI at Day 84 ([2]; topical cream 1.0% QD): 0% and −66.7% and 77.8%
- % Change in PASI at Day 28 ([2]; topical cream 1.5% QD): −12.6% and −4.7% and −28% and −50% and −32%
- % Change in PASI at Day 84 ([2]; topical cream 1.5% QD): −12.6% and −42.5% and −30% and −84.8% and −64%

Reference: patent publication US11584961B2, “Biomarkers for inflammatory skin disease” (Incyte Corporation, priority 2018, dated 2023)
